Measured values reported in US9150544B2 (priority 2011, dated 2015).

Biological target: human factor IXa (Homo sapiens (Human), UniProt P00740)
Assay: biochemical
Conditions: read-out: Imax IXa (percentage inhibition at the maximum concentration tested)

Chain of human factor IXa (P00740 whole entry, looked up): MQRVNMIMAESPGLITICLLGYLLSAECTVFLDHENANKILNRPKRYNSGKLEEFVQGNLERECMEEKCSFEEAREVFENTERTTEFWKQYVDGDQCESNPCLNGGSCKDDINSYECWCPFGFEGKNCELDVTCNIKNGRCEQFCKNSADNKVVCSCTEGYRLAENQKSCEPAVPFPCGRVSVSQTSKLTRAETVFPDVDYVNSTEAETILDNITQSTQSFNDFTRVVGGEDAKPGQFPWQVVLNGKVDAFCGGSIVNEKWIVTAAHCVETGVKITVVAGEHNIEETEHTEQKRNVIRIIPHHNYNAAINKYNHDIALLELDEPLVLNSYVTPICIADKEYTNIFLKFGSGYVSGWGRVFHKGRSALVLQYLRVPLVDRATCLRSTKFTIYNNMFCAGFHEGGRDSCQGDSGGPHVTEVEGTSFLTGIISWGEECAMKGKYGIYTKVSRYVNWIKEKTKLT
Chain of human factor IXa (P00740 whole entry partner, looked up): as the sequence (P00740 whole entry, looked up) above

In the case of `COC(=O)[C@@H](Cc1cc2ccnc(N)c2cc1C(F)(F)F)N1CC[C@H](NS(=O)(=O)c2cnc(N3CCC(F)(F)C3)s2)C1=O` [Compound 90, (R)-3-(1-Amino-7-trifluoromethyl-isoquinolin-6-yl)-2-{(S)-3-[2-(3,3-difluoro-pyrrolidin-1-yl)-thiazole-5-sulfonylamino]-2-oxo-pyrrolidin-1-yl}-propionic acid methyl ester], the inhibition at 5 µM is reported as 41%.
